In publication PMC10847306, “The antibacterial activity and mechanism of a novel peptide MR-22 against multidrug-resistant Escherichia coli” (Frontiers in Cellular and Infection Microbiology, 2024):

Legend:
[1] = test system: E. coli ATCC 25922 and clinically drug resistant isolated strains; assay: microbe, parasite or virus in culture; type: cell-based, Escherichia coli; details: 18 h
Method: (§1) The MIC were determined by a micro dilution method in Mueller-Hinton broth (MHB) ([Cuenca-Estrella et al., 2010]). The final concentration of bacterial suspension in MHB were 1.0×10^6 CFU/mL. The final concentration of MR-22 ranged 1 ~ 256 μg/mL in 96 wells plate broth at 37°C for 16~18 h. Imipenem was employed as positive control, bacterial grown without treatment as negative control and MHB as blank control. MIC determination was performed by reading the OD600 nm. Take 100 μL samples in holes that have never seen bacterial growth and place them on the LB agar board. The concentration of MR-22 with no bacterial growth was defined as the MBC.

[2] = test system: E. coli ATCC 25922 and E19; assay: Reactive oxygen species measurement (DCFH-DA); type: cell-based, Escherichia coli; details: DCFH-DA 10 μM, MR-22 1, 2, 4 × MIC, 1 h, 37°C; ex 488/em 525 nm
Method: The fluorescence probe 2’,7’-dichlorodihydrofluorescein diacetate (DCFH-DA) was used to measure the intracellular generation of ROS. The bacterial suspension (1.0 × 10^6 CFU/mL) were mixed with DCFH-DA (the final concentration of 10 μM) and incubated for at 37°C 30 min in the dark. After incubation, the suspensions were treated with MR-22 (1, 2, 4 × MIC) at the indicated concentrations for 1 h at 37°C. The fluorescence intensity was evaluated using a multi-function fluorescent enzyme marker with an excitation wavelength of 488 nm and an emission wavelength of 525 nm. N-acetylcysteine (NAC) at a concentration of 24 mM was employed as a control agent for the purpose of quenching the production of reactive oxygen species.

E. coli ATCC 25922 [3] = type: cell-based, Escherichia coli
Method: (§2) In order to study the activity of MR-22 in high-salt concentration, mice serum, different temperatures or trypsin, MIC once again conducted tests as described above.
[…] The resulting solutions were subjected to MIC testing to evaluate any alterations in the antimicrobial activity of MR-22.
(§3) To assess the thermal stability of MR-22, it was subjected to various temperatures (40°C, 60°C, 80°C, and 100°C) for 30 min. Then, reducing to room temperature, and the MIC was subsequently determined.
(§4) MR-22 was mixed with a solution containing 1 μg/ml of trypsin and incubated at 37°C for 2 to 12h. Then, trypsin inactivation was carried out at 60°C for 30 min. The antimicrobial activity of the samples was tested to assess the activity of MR-22 and its analogs after the treatment by trypsin. The untreated MR-22 served as the control group for comparative analysis.

E. coli E19 [4] = assay: Time-kill assay; type: cell-based, Escherichia coli; details: 1 × MIC ('1 × MIC and 2 × MIC, respectively' for E19 and ATCC 25922), 1.0×10^6 CFU/mL, 37°C, colony counts
Method: (§5) The time-kill kinetics of MR-22 on E. coli were determined following the protocol described by ([Lu et al., 2022]). The bacterial suspensions (1.0×10^6 CFU/mL) were mixed with different concentrations of MR-22, then cultured at 37°C. The final concentrations of MR-22 ranged 1, 2, 4 ×MIC. At 0, 1, 2, 4, 6, 12, and 24 h, 10 μL aliquot samples were diluted in 90 μL PBS and 5 μL aliquot of the dilutions was spread onto LB agar plates. After incubation at 37°C for 24 h, the colony counts were determined and the time-killing curve was plotted.

E. coli ATCC 25922 [5] = assay: Time-kill assay; type: cell-based, Escherichia coli; details: 2 × MIC ('1 × MIC and 2 × MIC, respectively' for E19 and ATCC 25922), 1.0×10^6 CFU/mL, 37°C, colony counts
Method: as §5

E. coli E19 [6] = type: cell-based, Escherichia coli
Method: as §2
E. coli ATCC 25922 and E19 were incubated in different concentrations MR-22 in MHB with 150 mM NaCl, 2 mM CaCl2, 10% mice serum and 10% FBS in 96-well plates and cultured at 37°C for 16 h. The resulting solutions were subjected to MIC testing to evaluate any alterations in the antimicrobial activity of MR-22.
as §3, §4

E. coli E19 [7] = assay: Membrane permeability assay (PI, flow cytometry); type: cell-based, Escherichia coli; details: 1 h, untreated 2.13%
Method: (§6) According to the previously described method ([Fadhel Abbas Albaayit et al., 2022]), bacterial suspensions were diluted with PBS to concentration of 1.0×10^6 CFU/mL. […] 10 μM of propidium iodide (PI; Sigma, US) was added to each group and incubated at 37°C for 15 min in the dark. The samples were analyzed using a CytoFLEX flow cytometry (Beckman Coulter, USA), and the positive rate of PI was utilized as an indicator of bacterial membrane permeability.

E. coli ATCC 25922 [8] = assay: Membrane permeability assay (PI, flow cytometry); type: cell-based, Escherichia coli; details: 1 h, untreated 0.79%
Method: as §6

[9] = test system: E. coli ATCC 25922 and E19; assay: Intracellular ATP determination; type: cell-based, Escherichia coli; details: MR-22 1, 2, 4 × MIC, 1 h, 37°C; compared to the control group; dose-dependent
Method: The MR-22 solution was added to bacterial suspensions (1.0 × 10^6 CFU/mL) at different final concentrations (1, 2, 4 × MIC) incubated at 37°C for 1 h. The mixture was subsequently centrifuged and the resulting supernatants were collected. Finally, the intracellular ATP concentration was determined using an ATP Assay Kit (Beyotime, China) according to the manufacturer’s instruction.

E. coli ATCC 25922 [10] = assay: microbe, parasite or virus in culture; details: ATCC 25922, 18 h
Method: as §1

## H-MAKRRKKAKKKAKKAKKRRRRR-NH2 [MR-22]
[1]
  MIC over all strains tested: 4 ~ 32 μg/mL
[2]
  ROS accumulation in bacteria: increased significantly
E. coli ATCC 25922 [3]; ATCC 25922, 16 h
  MIC, 150 μM Na^+: 256 µg/mL
  MIC, 10% FBS: 16 µg/mL
  MIC, 10% Serum: 64 µg/mL
  MIC, 40°C 30 min: 16 µg/mL
  MIC, 60°C 30 min: 16 µg/mL
  MIC, 80°C 30 min: 16 µg/mL
  MIC, 100°C 30 min: 16 µg/mL
  MIC, Control: 16 µg/mL
E. coli ATCC 25922 [3]; E. coli ATCC 25922, MR-22 incubated with 1 μg/ml trypsin at 37°C (2 to 12 h), trypsin inactivated 60°C 30 min
  MIC, 1 μg/mL Trypsin: >256 µg/mL
E. coli E19 [4]
  time to eliminate the bacteria (time-kill): ≤ 2 h
E. coli ATCC 25922 [5]
  time to eliminate the bacteria (time-kill): ≤ 2 h
E. coli E19 [6]; E19, 16 h
  MIC, 150 μM Na^+: 256 µg/mL
  MIC, 10% FBS: 32 µg/mL
  MIC, 10% Serum: 128 µg/mL
  MIC, 40°C 30 min: 32 µg/mL
  MIC, 60°C 30 min: 32 µg/mL
  MIC, 80°C 30 min: 32 µg/mL
  MIC, 100°C 30 min: 32 µg/mL
  MIC, Control: 32 µg/mL
E. coli E19 [6]; E. coli E19, MR-22 incubated with 1 μg/ml trypsin at 37°C (2 to 12 h), trypsin inactivated 60°C 30 min
  MIC, 1 μg/mL Trypsin: >256 µg/mL
E. coli E19 [7]; 1 × MIC
  percentage of PI-positive cells: 7.83%
E. coli E19 [7]; 2 × MIC
  percentage of PI-positive cells: 14.35%
E. coli E19 [7]; 4 × MIC
  percentage of PI-positive cells: 25.14%
E. coli ATCC 25922 [8]; 1 × MIC
  PI fluorescence signals (PI-positive cells): 9.19%
E. coli ATCC 25922 [8]; 2 × MIC
  PI fluorescence signals (PI-positive cells): 39.10%
E. coli ATCC 25922 [8]; 4 × MIC
  PI fluorescence signals (PI-positive cells): 53.20%
[9]
  intracellular ATP concentration: significantly reduced
E. coli ATCC 25922 [10]
  MBC: 16 µg/mL
  MIC: 16 µg/mL
